Experimental data reported in ChEMBL document CHEMBL1201862, “PubChem BioAssay data set” (2004).
One block for each molecule: values may come before it. Activity calls are given as the source filed them.

Tests used:
[1] = HGIII-sPLA2 enzyme inhibition potency – biochemical, QFRET, IC50, dose response (AID 743457);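 further: green fluorescence rise as the enzyme cleaves BODIPY PC-A2 in liposomes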
[2] = molecular target: T1, Short transient receptor potential channel 4 (Mus musculus, UniProt Q9QUQ5); assay: block of DAMGO-driven TRPC4 calcium entry – cell-based, HEK293 TRPC4/mu-opioid, Fluo-4 calcium, dose response (AID 434942); type: functional;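 further: potency of inhibitors blocking the TRPC4 calcium response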
T1 sequence (Q9QUQ5 whole entry): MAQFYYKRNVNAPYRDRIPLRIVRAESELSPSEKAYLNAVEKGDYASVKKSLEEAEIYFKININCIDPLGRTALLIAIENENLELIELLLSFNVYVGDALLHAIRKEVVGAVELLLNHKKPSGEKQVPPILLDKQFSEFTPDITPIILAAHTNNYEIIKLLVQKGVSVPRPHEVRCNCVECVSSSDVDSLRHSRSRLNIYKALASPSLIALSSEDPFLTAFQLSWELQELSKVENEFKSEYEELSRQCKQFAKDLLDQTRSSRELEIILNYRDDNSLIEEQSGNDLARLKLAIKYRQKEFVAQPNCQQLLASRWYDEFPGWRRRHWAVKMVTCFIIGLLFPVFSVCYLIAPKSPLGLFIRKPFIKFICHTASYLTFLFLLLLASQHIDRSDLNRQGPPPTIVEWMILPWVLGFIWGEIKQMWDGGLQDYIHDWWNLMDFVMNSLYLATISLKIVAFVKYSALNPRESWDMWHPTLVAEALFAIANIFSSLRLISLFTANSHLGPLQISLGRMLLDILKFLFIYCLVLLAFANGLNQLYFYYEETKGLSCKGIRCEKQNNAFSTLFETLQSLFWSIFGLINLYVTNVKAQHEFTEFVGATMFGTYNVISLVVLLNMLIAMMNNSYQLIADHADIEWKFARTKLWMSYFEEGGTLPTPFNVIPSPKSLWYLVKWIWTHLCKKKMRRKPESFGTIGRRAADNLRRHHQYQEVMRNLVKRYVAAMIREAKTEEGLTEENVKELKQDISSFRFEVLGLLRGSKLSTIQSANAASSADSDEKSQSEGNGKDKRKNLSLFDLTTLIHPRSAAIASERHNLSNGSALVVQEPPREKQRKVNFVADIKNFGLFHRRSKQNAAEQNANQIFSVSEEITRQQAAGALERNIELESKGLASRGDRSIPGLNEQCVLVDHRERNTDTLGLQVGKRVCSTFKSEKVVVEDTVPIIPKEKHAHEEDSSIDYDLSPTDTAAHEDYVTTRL

[3] = molecular target: 5-hydroxytryptamine receptor 2A (Mus musculus, UniProt P35363); type: functional, cell-based;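 further: CHO-K1 cells with tagged receptor and beta-arrestin; agonist potency measured as compound-induced activation of the receptor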
Mu-type opioid receptor = Mu-type opioid receptor (Homo sapiens, UniProt P35372); type: functional, cell-based;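 further: U2OS cells with beta-arrestin recruitment to OPRM1 by beta-gal complementation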
[4] = molecular target: T2, Oxysterols receptor LXR-beta (Homo sapiens, UniProt P55055); type: functional, cell-based;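 further: agonist activity at LXR measured by a cell-based luminescence readout across a dose range, run as a counterscreen for daf-12 agonists; HEK293 cells with Gal4-LXR fusion and GAL4-driven luciferase reporter; potency for activation of Gal4-LXR reporter so compounds are agonists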
T2 sequence (P55055 whole entry): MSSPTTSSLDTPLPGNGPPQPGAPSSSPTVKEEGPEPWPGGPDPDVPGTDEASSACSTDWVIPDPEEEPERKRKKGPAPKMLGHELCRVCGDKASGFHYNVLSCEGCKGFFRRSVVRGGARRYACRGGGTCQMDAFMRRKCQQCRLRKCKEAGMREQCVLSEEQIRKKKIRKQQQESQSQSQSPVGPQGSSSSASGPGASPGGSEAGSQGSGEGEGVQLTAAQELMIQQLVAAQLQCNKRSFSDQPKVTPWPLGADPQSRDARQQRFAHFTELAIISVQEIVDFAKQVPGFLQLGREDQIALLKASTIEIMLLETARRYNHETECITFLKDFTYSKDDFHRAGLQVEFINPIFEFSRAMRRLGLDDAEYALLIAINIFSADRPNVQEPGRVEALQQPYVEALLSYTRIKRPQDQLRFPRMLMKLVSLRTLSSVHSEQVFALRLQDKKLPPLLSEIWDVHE

[5] = general mammalian cell viability loss – inhibitor set, cherry-pick, set 2, cytotoxicity control for miR-122 modulator project, dose response (AID 720697); type: functional, cell-based
[6] = viability loss in HepG2 hepatoma cells – cell-based, ATP luminescence, cherry-pick, activator set 2, cytotoxicity control, dose response (AID 1053143); type: functional
Albumin = Albumin (Bos taurus, UniProt P02769); assay: Counterscreen for inhibitors of T-cell receptor (TCR)-CD3 interaction: Fluorescence-based biochemical high throughput dose response assay to identify inhibitors of T-cell receptor (TCR)-CD3 interaction using a TAMRA-labeled BSA probe.; type: functional
[7] = molecular target: T3, Mannose-6-phosphate isomerase (Homo sapiens, UniProt P34949); assay: MPI inhibition at elevated mannose 6-phosphate – biochemical, fluorescence intensity, high mannose 6-phosphate, primary screen (AID 1220)
T3 sequence (P34949 whole entry): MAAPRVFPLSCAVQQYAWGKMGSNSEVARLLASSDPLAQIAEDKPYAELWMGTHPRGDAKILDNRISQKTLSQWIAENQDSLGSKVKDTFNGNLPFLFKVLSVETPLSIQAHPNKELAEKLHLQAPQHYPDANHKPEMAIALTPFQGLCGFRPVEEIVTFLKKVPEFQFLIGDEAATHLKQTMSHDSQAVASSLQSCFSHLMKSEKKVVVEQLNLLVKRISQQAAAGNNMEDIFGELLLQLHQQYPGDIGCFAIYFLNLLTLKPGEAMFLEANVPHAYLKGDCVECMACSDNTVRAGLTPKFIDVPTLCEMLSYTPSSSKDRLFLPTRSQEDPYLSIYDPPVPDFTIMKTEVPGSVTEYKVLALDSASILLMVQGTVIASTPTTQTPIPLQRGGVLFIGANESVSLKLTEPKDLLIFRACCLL

[8] = molecular target: T3, Mannose-6-phosphate isomerase; assay: MPI enzyme activity inhibition – biochemical, fluorescence intensity, coupled assay, primary screen (AID 1209)
[9] = molecular target: T4, Histone-lysine N-methyltransferase NSD2 (Homo sapiens, UniProt O96028); type: biochemical
T4 sequence (O96028 whole entry): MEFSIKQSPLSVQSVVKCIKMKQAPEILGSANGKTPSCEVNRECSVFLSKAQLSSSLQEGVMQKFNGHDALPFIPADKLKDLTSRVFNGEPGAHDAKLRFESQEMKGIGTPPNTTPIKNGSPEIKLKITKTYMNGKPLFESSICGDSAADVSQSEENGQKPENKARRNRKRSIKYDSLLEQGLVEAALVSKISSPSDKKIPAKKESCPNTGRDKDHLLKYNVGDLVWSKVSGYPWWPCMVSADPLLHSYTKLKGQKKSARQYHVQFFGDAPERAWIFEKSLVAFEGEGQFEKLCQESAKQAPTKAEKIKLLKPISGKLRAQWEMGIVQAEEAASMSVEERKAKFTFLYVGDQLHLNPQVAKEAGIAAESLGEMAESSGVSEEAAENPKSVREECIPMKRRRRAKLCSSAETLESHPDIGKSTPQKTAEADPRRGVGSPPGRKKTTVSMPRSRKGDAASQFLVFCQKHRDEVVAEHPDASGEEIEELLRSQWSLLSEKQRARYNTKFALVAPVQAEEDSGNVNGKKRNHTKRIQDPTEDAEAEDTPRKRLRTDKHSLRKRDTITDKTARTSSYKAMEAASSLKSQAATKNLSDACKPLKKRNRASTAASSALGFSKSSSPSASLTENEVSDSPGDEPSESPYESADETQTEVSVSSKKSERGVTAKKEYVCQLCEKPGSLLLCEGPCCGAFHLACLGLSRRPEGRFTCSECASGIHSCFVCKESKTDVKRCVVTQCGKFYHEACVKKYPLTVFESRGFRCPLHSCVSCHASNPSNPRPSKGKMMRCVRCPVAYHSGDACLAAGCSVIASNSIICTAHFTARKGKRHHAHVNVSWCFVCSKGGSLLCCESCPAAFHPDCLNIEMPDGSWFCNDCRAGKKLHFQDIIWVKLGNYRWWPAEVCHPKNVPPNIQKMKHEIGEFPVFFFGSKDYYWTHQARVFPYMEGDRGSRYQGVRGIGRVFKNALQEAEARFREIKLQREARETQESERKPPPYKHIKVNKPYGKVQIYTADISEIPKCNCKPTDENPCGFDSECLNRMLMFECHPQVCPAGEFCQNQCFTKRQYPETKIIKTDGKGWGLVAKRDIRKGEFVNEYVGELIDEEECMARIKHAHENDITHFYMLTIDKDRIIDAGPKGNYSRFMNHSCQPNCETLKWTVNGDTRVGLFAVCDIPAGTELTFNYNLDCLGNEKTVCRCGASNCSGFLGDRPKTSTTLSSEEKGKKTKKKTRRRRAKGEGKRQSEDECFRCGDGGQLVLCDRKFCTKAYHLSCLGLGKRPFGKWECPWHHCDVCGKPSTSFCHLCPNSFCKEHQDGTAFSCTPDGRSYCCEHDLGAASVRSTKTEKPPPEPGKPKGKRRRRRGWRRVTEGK

[10] = molecular target: Arf-GAP with SH3 domain, ANK repeat and PH domain-containing protein 1 (Homo sapiens, UniProt Q9ULH1); type: functional;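 further: biochemical fluorescence polarization dose–response screen measuring inhibition of ASAP1; ASAP1 GAP domain stimulating GTP hydrolysis by truncated human ARF1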
[11] = molecular target: ADP-ribosylation factor GTPase-activating protein 1 (Rattus norvegicus, UniProt Q62848); assay: Fluorescence polarization-based biochemical high throughput dose response screening assay to identify inhibitors of ADP-ribosylation factor GTPase activating protein 1 (ARFGAP1).; type: functional
[12] = molecular target: T5, DNA repair protein RAD52 homolog (Homo sapiens, UniProt P43351); type: functional, biochemical
T5 sequence (P43351 whole entry): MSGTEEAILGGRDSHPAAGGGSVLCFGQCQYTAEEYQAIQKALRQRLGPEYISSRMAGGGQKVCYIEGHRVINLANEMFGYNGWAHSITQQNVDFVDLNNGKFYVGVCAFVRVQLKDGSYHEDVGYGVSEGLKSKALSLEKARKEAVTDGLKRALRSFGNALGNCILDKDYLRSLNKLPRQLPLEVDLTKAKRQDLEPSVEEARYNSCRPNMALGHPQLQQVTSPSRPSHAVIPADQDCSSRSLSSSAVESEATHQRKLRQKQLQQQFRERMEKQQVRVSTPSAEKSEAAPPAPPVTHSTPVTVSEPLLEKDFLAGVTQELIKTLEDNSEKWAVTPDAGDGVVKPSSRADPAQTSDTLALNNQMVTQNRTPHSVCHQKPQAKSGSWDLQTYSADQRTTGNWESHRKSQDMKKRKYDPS

[13] = molecular target: T6, Rac GTPase-activating protein 1 (Homo sapiens, UniProt Q9H0H5); assay: blockers of MgcRacGAP-driven Rac1 GTP hydrolysis – biochemical, ADP Hunter fluorescence, primary and confirmatory, confirmation (AID 624330); type: functional
T6 sequence (Q9H0H5 whole entry): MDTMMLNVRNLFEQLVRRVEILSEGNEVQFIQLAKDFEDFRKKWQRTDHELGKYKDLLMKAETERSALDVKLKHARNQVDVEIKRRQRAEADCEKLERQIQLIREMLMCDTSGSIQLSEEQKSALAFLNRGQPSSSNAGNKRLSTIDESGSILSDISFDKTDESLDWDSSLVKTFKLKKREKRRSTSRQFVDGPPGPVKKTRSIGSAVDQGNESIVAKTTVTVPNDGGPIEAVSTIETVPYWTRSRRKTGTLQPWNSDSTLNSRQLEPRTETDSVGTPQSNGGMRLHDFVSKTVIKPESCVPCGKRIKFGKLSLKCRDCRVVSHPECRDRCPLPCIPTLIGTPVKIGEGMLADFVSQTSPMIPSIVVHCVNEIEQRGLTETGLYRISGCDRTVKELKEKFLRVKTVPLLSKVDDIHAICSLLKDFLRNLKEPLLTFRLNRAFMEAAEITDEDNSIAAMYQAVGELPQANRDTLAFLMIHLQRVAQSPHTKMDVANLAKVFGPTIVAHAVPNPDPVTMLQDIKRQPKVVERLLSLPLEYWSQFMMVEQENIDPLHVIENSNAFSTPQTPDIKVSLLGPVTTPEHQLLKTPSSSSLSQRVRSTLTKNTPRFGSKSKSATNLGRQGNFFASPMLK

[14] = general mammalian cell viability loss – activator set, cherry-pick, cytotoxicity control for miR-122 modulator project, dose response (AID 720690); type: functional, cell-based;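 further: HEK293T human cells scored for general mammalian cytotoxicity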

Sequence of Mu-type opioid receptor (P35372 whole entry, the tested form may be a part): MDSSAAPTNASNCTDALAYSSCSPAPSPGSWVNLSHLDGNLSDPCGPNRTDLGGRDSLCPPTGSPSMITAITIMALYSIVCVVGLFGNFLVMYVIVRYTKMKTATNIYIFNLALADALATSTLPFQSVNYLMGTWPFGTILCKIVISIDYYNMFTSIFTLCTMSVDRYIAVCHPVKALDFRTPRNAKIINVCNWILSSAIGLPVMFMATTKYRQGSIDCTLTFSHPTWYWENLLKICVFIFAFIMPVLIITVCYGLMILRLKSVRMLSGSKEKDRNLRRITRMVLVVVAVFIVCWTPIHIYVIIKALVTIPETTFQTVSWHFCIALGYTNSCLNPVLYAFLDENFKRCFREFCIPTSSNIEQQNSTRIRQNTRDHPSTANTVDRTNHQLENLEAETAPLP
Sequence of 5-hydroxytryptamine receptor 2A (P35363 whole entry): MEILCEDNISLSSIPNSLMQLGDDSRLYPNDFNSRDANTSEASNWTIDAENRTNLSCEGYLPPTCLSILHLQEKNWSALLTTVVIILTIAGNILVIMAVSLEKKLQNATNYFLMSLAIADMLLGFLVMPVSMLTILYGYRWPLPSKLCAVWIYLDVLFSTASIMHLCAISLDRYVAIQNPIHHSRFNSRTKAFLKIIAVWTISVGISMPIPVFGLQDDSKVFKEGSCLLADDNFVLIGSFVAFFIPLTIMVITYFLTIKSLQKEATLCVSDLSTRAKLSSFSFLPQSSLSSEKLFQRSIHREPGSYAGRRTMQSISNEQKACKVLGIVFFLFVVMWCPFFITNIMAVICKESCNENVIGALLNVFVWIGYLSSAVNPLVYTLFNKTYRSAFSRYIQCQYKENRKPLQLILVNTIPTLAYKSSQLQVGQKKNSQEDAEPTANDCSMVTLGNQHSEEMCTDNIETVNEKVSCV
Sequence of Albumin (P02769 whole entry): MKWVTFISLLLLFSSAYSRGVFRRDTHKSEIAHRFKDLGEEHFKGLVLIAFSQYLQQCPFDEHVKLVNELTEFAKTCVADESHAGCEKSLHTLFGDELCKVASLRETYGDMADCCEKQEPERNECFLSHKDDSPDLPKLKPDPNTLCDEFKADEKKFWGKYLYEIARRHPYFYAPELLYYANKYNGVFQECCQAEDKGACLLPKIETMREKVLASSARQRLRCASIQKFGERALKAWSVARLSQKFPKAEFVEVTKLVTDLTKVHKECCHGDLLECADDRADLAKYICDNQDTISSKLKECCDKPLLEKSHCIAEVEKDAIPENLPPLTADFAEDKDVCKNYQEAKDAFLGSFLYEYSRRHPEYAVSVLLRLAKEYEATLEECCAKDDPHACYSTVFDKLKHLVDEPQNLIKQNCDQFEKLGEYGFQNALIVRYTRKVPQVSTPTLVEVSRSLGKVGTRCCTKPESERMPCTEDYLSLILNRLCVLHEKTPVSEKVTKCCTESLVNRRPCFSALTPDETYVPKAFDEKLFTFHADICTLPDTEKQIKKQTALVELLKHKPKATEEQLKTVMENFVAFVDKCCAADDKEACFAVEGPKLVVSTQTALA
Sequence of Arf-GAP with SH3 domain, ANK repeat and PH domain-containing protein 1 (Q9ULH1 whole entry, the tested form may be a part): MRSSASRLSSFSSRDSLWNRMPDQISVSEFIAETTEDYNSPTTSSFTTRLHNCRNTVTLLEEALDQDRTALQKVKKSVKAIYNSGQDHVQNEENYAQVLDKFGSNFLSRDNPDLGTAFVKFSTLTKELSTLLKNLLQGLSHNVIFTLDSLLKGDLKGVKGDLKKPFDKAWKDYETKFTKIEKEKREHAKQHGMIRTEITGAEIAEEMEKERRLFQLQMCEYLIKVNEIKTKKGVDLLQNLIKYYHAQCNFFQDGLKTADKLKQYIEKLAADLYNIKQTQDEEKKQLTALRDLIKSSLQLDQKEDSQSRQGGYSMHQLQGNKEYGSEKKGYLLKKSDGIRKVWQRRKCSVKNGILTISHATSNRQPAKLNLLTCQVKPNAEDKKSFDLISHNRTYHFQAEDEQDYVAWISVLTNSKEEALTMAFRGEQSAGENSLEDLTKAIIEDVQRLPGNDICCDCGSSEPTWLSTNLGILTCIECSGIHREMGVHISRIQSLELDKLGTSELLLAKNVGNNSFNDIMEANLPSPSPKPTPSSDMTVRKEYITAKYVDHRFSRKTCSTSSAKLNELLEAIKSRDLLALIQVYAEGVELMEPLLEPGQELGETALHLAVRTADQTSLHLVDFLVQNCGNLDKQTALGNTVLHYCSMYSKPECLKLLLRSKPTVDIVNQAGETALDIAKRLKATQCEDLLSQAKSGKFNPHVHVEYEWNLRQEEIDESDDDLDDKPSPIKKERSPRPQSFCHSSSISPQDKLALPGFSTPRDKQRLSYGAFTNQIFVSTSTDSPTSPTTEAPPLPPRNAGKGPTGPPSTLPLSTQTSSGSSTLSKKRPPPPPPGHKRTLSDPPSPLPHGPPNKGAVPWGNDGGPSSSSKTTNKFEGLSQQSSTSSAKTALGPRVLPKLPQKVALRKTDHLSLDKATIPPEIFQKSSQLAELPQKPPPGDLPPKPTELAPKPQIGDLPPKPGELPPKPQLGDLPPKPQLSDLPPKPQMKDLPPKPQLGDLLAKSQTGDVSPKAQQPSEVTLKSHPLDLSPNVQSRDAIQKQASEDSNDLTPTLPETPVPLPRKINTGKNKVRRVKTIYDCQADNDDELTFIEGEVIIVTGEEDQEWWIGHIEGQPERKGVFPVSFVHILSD
Sequence of ADP-ribosylation factor GTPase-activating protein 1 (Q62848 whole entry): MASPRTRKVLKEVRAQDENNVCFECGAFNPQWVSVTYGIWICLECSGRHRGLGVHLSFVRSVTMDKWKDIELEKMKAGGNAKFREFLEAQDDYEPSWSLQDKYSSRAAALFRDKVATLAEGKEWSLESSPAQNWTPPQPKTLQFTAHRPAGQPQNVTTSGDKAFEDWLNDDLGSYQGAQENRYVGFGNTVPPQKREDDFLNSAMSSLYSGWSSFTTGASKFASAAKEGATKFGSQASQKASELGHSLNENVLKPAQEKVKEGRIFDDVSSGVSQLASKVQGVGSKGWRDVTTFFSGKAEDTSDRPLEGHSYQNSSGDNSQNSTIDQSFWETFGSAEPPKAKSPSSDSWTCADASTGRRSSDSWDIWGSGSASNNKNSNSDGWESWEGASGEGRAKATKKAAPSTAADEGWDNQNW

- IC50 [1]: > 122 µM (inactive)
SMILES: O=C(NNC(=S)Nc1ccc(Br)cc1)c1cccnc1

- EC50 [2]: 5.96 µM (active)
- EC50 [3]: 0.59 µM (active)
- EC50 (Mu-type opioid receptor): 92.5 µM (inactive)
SMILES: CC(COc1ccccc1)N1CCC(CO)(Cc2ccccc2)CC1 (stereo unspecified)

- EC50 [4]: > 67.5 µM (inactive)
SMILES: COC(=O)c1sc2nc3c(cc2c1N)CCCC3

SMILES: COc1ccc(CC(NC(C)=O)C(=O)N2CCN(C(=O)N(C(C)C)C(C)C)CC2)cc1 (stereo unspecified)
- AC50 [5]: 0.834 µM (active)

SMILES: CC(=O)CC1(O)C(=O)N(Cc2ccccc2)c2ccccc21 (stereo unspecified)
- AC50 [6]: > 52 µM (inactive)

- IC50 (Albumin): > 94.1 µM (inactive)
SMILES: COc1ccc(C(=O)NC(=S)NNC(=O)c2ccc(O)cc2)cc1[N+](=O)[O-]

- EC50 [3]: 1.07 µM (active)
- EC50 (Mu-type opioid receptor): 92.5 µM (inactive)
SMILES: COc1ccc(CC2(CO)CCN(Cc3cc4ccccc4o3)CC2)cc1

- IC50 [7]: 7.13 µM (active)
- IC50 [8]: 5.12 µM (active)
- AC50 [9]: 4.96 µM (active)
SMILES: CN(Cc1c(O)ccc2c1oc(=O)c1ccccc12)C1CCCCC1

SMILES: Cc1ccc(C(=O)Nc2ncc(Cc3ccc(F)cc3)s2)o1
- AC50 [6]: 12 µM (active)

- EC50 [4]: > 67.6 µM (inactive)
SMILES: Cc1ccc(-c2nnc(NC3CCCC3)s2)cc1

- IC50 [10]: 22.4 µM (inactive)
- IC50 [11]: 28.5 µM (inactive)
SMILES: O=C(COc1ccc2oc(-c3ccco3)cc(=O)c2c1)N1CCCCC1

- EC50 [3]: 0.529 µM (active)
- EC50 (Mu-type opioid receptor): 92.5 µM (inactive)
SMILES: COc1ccc(CN2CCN(c3ccccn3)CC2)c(OC)c1

SMILES: Nc1ccc(CC2=NCCN2)cc1
- AC50 [12]: 0.739 µM (active)

- IC50 [1]: > 122 µM (inactive)
- IC50 [13]: 58.2 µM (active)
SMILES: CCN(CC)c1ccc(/C=N/NC(=S)NC)c(O)c1

SMILES: CNC[C@H]1Oc2cc(C#CC3CCCC3)ccc2S(=O)(=O)N([C@H](C)CO)C[C@H]1C
- AC50 [14]: 30.9 µM (active)

SMILES: COCCN(C[C@@H]1[C@@H](c2ccccc2)[C@H](CO)N1C(=O)C1CC1)C(C)=O
- AC50 [5]: 0.502 µM (active)

- EC50 [4]: > 67.5 µM (inactive)
SMILES: CN(C)c1cccc(-c2cnc(N3CCC(C(N)=O)CC3)s2)c1

- AC50 [9]: > 20 µM (inactive)
SMILES: CNCCCC12CCC(c3ccccc31)c1ccccc12 [MAPROTILINE]
